Assay results from PMC6036117, “Structural Insight Into Conformational Changes Induced by ATP Binding in a Type III Secretion-Associated ATPase From Shigella flexneri” (Frontiers in Microbiology, 2018).
Like-named read-outs stand apart in the source and are kept apart here.

Experiments:
[1] = target: T1, Spa47Δ1-83 (Shigella flexneri, UniProt P0A1C1); assay: Isothermal titration calorimetry (ITC) of nucleotide binding to monomeric Spa47Δ1-83; conditions: for Ka (affinity constant) / ΔH (enthalpy variation) / ΔS (entropy variation): ATP without Mg2+, other ligands with Mg2+
T1 construct: The cDNA encoding Spa47Δ1-83 (84–430 aa) was amplified; 6xHis (pET28a, thrombin site) (N, cleaved yes); made in house; host or cells: E. coli Rosetta (DE3)
Description: An isothermal titration calorimetry (ITC) assay was performed with a MicroCalTM iTC200 calorimeter (MicroCal, USA) at 25°C. Both the protein and the ATP homolog were dissolved in the same buffer (20 mM Tris-HCl, pH = 8.0, 100 mM NaCl, 5 mM MgCl2). The concentrations of Spa47Δ1-83 and the mutants were between 0.03 and 0.04 mM. The concentration of ATP analogs was between 1 and 2 mM. Titration consisted of 18 consecutive 2-μl injections of ATP analogs with a 120-s interval between injections using a stir rate of 600 rpm. The dilution heat of the ligand was measured by adding ligand to a buffer solution under these conditions, and the injection schedule was identical to that used for the protein sample. For titration of the protein with ATP, MgCl2 was omitted in the buffer. Data acquisition and analysis were performed using Origin software. A single binding site model was used for nonlinear curve fitting. ITC experiments were repeated twice for each ligand.

[2] = target: p97; set-up: method as in Tang et al., 2010; conditions: ATP binding; ref Tang et al., 2010; cited from earlier work
[3] = target: muscle creatine kinase; set-up: method as in Forstner et al., 1999; conditions: ATP binding; ref Forstner et al., 1999; cited from earlier work
[4] = target: subunit B of the A1A0 ATP synthase; set-up: method as in Kumar et al., 2009; conditions: ATP binding; ref Kumar et al., 2009; cited from earlier work
[5] = ITC, 25°C, 20 mM Tris-HCl pH 8.0, 100 mM NaCl, 5 mM MgCl2 (MgCl2 omitted for ATP), single binding site model, Kd calculated as 1/Ka, read-out: Kd (apparent dissociation constant)

SMILES | Kd [1, 5] [µM] | Ka (affinity constant) ([1]; ITC, 25°C) | ΔH (enthalpy variation) ([1]; ITC, 25°C) [kcal/mol] | ΔS (entropy variation) ([1]; ITC, 25°C) [cal/mole/deg] | Kd [2] [µM] | Kd [3] [µM] | Kd [4] [µM] | Kd [1] [µM] | Kd ([1]; ITC, 25°C, 20 mM Tris-HCl pH 8.0, 100 mM NaCl, 5 mM MgCl2 (MgCl2 omitted for ATP), single binding site model, Kd calculated as 1/Ka, listed as AMP-PNP, read-out: Kd (apparent dissociation constant)) [µM] | fold lower binding affinity than ATP and ATPγS ([1]; ITC, relative to the affinity measured for ATP and ATPγS)
Nc1ncnc2c1ncn2[C@@H]1O[C@H](COP(=O)(O)OP(=O)(O)O)[C@@H](O)[C@H]1O [ADP] | 150 ± 6.03 | 0.067±0.003 10^5. M^-1 | -17.24 ± 3.82 | -40.30 |  |  |  |  |  | 
Nc1ncnc2c1ncn2[C@@H]1O[C@H](COP(=O)(O)OP(=O)(O)OP(=O)(O)O)[C@@H](O)[C@H]1O [ATP] | 23.1 ± 3.44 | 0.443±0.070 10^5. M^-1 | -4.99 ± 0.53 | 4.50 | 0.89 | 4 to 16 | 22 |  |  | 
Nc1ncnc2c1ncn2[C@@H]1O[C@H](CO[P@](=O)(O)O[P@](=O)(O)O[P@@](=O)(O)S)[C@@H](O)[C@H]1O [ATPγS] |  | 0.472±0.017 10^5. M^-1 | -8.16 ± 0.16 | -6.00 |  |  |  | 21.2 ± 0.8 |  | 
Nc1ncnc2c1ncn2[C@@H]1O[C@H](COP(=O)(O)OP(=O)(O)NP(=O)(O)O)[C@@H](O)[C@H]1O [AMPPNP] | 322 ± 12.6 | 0.031±0.001 10^5. M^-1 | -7.21 ± 0.11 | -8.20 |  |  |  |  | 322 ± 12.6 | ~ 15 fold
